Assay results reported in publication PMC12030497, “Plasma Protein Binding, Biostability, Metabolite Profiling, and CYP450 Phenotype of TPB15 Across Different Species: A Novel Smoothened Inhibitor for TNBC Therapy” (Pharmaceutics, 2025).

Tests used:
Stability in rat plasma = assay type: in vitro ADME, SD rat; conditions: 37 °C, 453 μg/L
Description: (§1) A total of 696.5 μL of plasma from each species (healthy mice, rat, dog, monkey, and human) were spiked with 3.5 μL of TPB15 stock solution ([…] in DMSO), resulting in a final TPB15 concentration of 453 μg/L in plasma. The mixture was then aliquoted into three tubes, each with a volume of 200 μL, maintaining a final DMSO concentration of 0.5%. After incubation in a water bath at 37 °C for 0, 30, 60, 90, and 120 min, 100 µL samples were transferred into EP tubes. Subsequently, 10 µL of internal standard working solution were added, followed by vortex mixing. Then, 500 µL of ethyl acetate were added, and the mixture was vortexed again before being centrifuged at 14,800 rpm at 4 °C for 10 min. A total of 400 µL of the supernatant were transferred into a new EP tube and placed in a vacuum concentrator (Bionoon-VAC2) (Bionoon Biotech, Shanghai, China) to dry for 1 h. The dried residue was reconstituted with 100 µL of mobile phase, vortex mixed thoroughly, and centrifuged again at 14,800 rpm at 4 °C for 10 min. A volume of 5 µL of the supernatant was then taken for LC-MS/MS analysis to determine the drug concentration. Additionally, a blank control group was established, in which PBS buffer was used in place of blank plasma in the incubation system.

[1] = Plasma protein binding by ultrafiltration, mouse plasma; assay type: in vitro ADME, KM mice; conditions: KM; mouse plasma, 4 to 16 μg/mL; read-out: average plasma protein binding rates, range over concentrations
Description: (§2) To prepare plasma samples of TPB15 at final concentrations of 4, 8, and 16 μg/mL, 1 μL of TPB15 dissolved in dimethyl sulfoxide (DMSO) at low (400 μg/mL), medium (800 μg/mL), and high (1600 μg/mL) concentrations was added to 99 μL of blank plasma obtained from humans, rats, mice, monkeys, and dogs. Each concentration was prepared in six replicates. The samples were then divided into two groups: one for determining the pre-ultrafiltration concentration (Cpre) and the other for measuring the post-ultrafiltration concentration (Ct), following the evaluation of the non-specific binding coefficient (NSB) of TPB15 to the ultrafiltration tubes. For Cpre determination, 10 μL of the sample was mixed with 990 μL of plasma, vortexed thoroughly, and analyzed for drug concentration using the previously reported liquid chromatography–tandem mass spectrometry (LC-MS/MS) method. For Ct determination, the samples were first incubated in a water bath at 37 °C for 3 h. After incubation, they were transferred to ultrafiltration tubes and centrifuged at 14,000 rpm for 20 min at 4 °C using a centrifuge (Sigma 3K-15) from Sigma Laborzentrifugen GmbH (Osterode am Harz, Germany). After centrifugation, 10 μL of the ultrafiltrate was mixed with 990 μL of plasma, vortexed, and analyzed for concentration using the same LC-MS/MS method. The formula for calculating the plasma protein binding rate (PPB) is as follows: PPB (%) = [1 − Ct/(1 − NSB)/Cpre] × 100%. (NSB: non-specific binding coefficient. […]).

mouse plasma protein = test: as above; assay type: in vitro ADME, KM mice; conditions: 37 °C 3 h
Description: as §2

[2] = Metabolic stability in monkey liver microsomes (MLM); assay type: in vitro ADME, crab-eating monkey
Description: A total of 450 μL liver microsomes from mice, rat, dog, monkey, and human were spiked with 0.5 μL of TPB15 solution and pre-incubated in a water bath at 37 °C for 10 min. Following this, 50 μL of NADPH were added to initiate the reaction. The concentrations of each substance in the incubation system are detailed in Table 1. After initiating the metabolic reaction, 50 μL aliquots were removed at incubation times of 0, 5, 15, 30, 45, 60, and 90 min and transferred to 150 μL of icy methanol solution containing the internal standard to terminate the reaction. The mixtures were swirled for 2 min and then centrifuged at 14,800 rpm at 4 °C for 10 min. […] Three samples were prepared in parallel at each time point. Additionally, both a positive control group and a blank control group were established. In the positive control group, substrate testosterone was incubated with liver microsomes from mice, rat, dog, monkey, and human. The concentrations of substrate testosterone were measured at 0 and 90 min, and the changes in concentration before and after incubation were compared to confirm the activity of the liver microsomes. The blank control group included one drug-containing inactivated liver microsome sample for each species. The metabolic stability parameters, including in vitro elimination half-life (T1/2) and in vitro intrinsic clearance rate (CLint), were calculated based on this graph using the following formulas: in vitro elimination half-life (T1/2) = −0.693/k and in vitro intrinsic clearance rate (CLint) = (0.693 × incubation medium (mL))/(liver microsomes (mg) × T1/2).

[3] = set-up: method as in PMID 39158678; conditions: pharmacokinetic studies in rats; cited from earlier work
Stability in mice plasma = assay type: in vitro ADME, KM mice; conditions: 37 °C, 453 μg/L
Description: as §1

MDA-MB-231 = system: MDA-MB-231; set-up: method as in PMID 32690258; conditions: MDA-MB-231, in vitro; cited from earlier work
Stability in dog plasma = assay type: in vitro ADME, beagle dog; conditions: 37 °C, 453 μg/L
Description: as §1

[4] = Plasma protein binding by ultrafiltration, human plasma; assay type: in vitro ADME
Description: as §2

## O=C(Nc1ccc(Cl)c(-c2nnc3c(Cl)cccn23)c1)c1ccc(Cl)nc1Cl [TPB15]
Stability in rat plasma; incubation 0 min
  Remaining proportion of substrate TPB15 (%) SD rat: 100.0 ± 0.6%
Stability in rat plasma; incubation 30 min
  Remaining proportion of substrate TPB15 (%) SD rat: 99.7 ± 1.5%
Stability in rat plasma; incubation 60 min
  Remaining proportion of substrate TPB15 (%) SD rat: 97.6 ± 0.6%
Stability in rat plasma; incubation 90 min
  Remaining proportion of substrate TPB15 (%) SD rat: 99.1 ± 0.3%
Stability in rat plasma; incubation 120 min
  Remaining proportion of substrate TPB15 (%) SD rat: 98.0 ± 0.6%
[1]
  fraction unbound at 3 h: 0.176 to 0.188
Mouse plasma protein; 4 μg/mL TPB15, ultrafiltration
  Plasma Protein Binding (%) KM Mice: 81.80 ± 0.10%
Mouse plasma protein; 8 μg/mL TPB15, ultrafiltration
  Plasma Protein Binding (%) KM Mice: 81.21 ± 0.34%
Mouse plasma protein; 16 μg/mL TPB15, ultrafiltration
  Plasma Protein Binding (%) KM Mice: 82.40 ± 0.42%
[2]; MLM, 5 μM TPB15, 0.5 mg/mL microsomes
  T1/2 (min), in vitro elimination half-life: 88.34 min
[2]; crab-eating monkey microsomes, 90 min, 5 μM TPB15, 0.5 mg/mL, NADPH 1 mM
  remaining proportion of TPB15 in liver microsomes: 48.0 ± 2.86%
[2]; monkey liver microsomes, MLM, 5 μM TPB15, 0.5 mg/mL microsomes, read-out: CLint (mL/min/mg), in vitro intrinsic clearance rate
  microsomal CLint at 5 μM: 0.0941 mL/min/mg
[2]; monkey liver microsomes, MLM, 5 μM TPB15, 0.5 mg/mL microsomes, read-out: T1/2 (min), in vitro elimination half-life
  half-life at 5 μM: 88 min
[3]
  half-life in rats: relatively long half-life
Stability in mice plasma; incubation 0 min
  Remaining proportion of substrate TPB15 (%) KM mice: 100.0 ± 0.7%
Stability in mice plasma; incubation 30 min
  Remaining proportion of substrate TPB15 (%) KM mice: 98.6 ± 0.9%
Stability in mice plasma; incubation 60 min
  Remaining proportion of substrate TPB15 (%) KM mice: 98.0 ±1.5%
Stability in mice plasma; incubation 90 min
  Remaining proportion of substrate TPB15 (%) KM mice: 97.1 ± 0.7%
Stability in mice plasma; incubation 120 min
  Remaining proportion of substrate TPB15 (%) KM mice: 98.0 ± 1.2%
MDA-MB-231
  inhibition of proliferation of TNBC cell line: significantly inhibits the proliferation
Stability in dog plasma; incubation 0 min
  Remaining proportion of substrate TPB15 (%) Beagle dog: 100.0 ± 1.1%
Stability in dog plasma; incubation 30 min
  Remaining proportion of substrate TPB15 (%) Beagle dog: 99.3 ± 0.7%
Stability in dog plasma; incubation 60 min
  Remaining proportion of substrate TPB15 (%) Beagle dog: 98.9 ± 0.4%
Stability in dog plasma; incubation 90 min
  Remaining proportion of substrate TPB15 (%) Beagle dog: 97.1 ± 1.4%
Stability in dog plasma; incubation 120 min
  Remaining proportion of substrate TPB15 (%) Beagle dog: 98.0 ± 0.8%
[4]; human plasma, 4 to 16 μg/mL, read-out: average plasma protein binding rates, range over concentrations
  fraction unbound at 3 h: 0.179 to 0.185
[4]; human, plasma, 4 μg/mL TPB15, ultrafiltration, 37 °C 3 h
  fraction unbound at 3 h, 4 μg/mL: 0.185
[4]; human, plasma, 8 μg/mL TPB15, ultrafiltration, 37 °C 3 h
  fraction unbound at 3 h, 8 μg/mL: 0.183
[4]; human, plasma, 16 μg/mL TPB15, ultrafiltration, 37 °C 3 h
  fraction unbound at 3 h, 16 μg/mL: 0.179
